Results taken from patent EP1452605A1, “Method for determining antiviral activity” (Universiteit Utrecht Holding B.V., priority 2003, dated 2004).

Columns and labels:
CrFK cells = experiment: Cellular viability assay (MTT) of CrFK cells; type: cell-based, feline
[1] = Cellular viability assay (MTT) of HFF overlayed with BHK cells; type: cell-based, Human; settings: hff and bhk cells; read-out: TC50 (the source's name)
HFF and BHK cells = experiment: as above; type: cell-based, Human
HIV-1Ba-L [2] = experiment: HIV-1 infection of monocyte-derived macrophages (MDM), p24-core antigen ELISA; type: cell-based; settings: Human immunodeficiency virus 1, Macrophage, 168 h; MDM infected with HIV-1Ba-L, p24 antigen after 7 days
Procedure: To correct for the input virus, an extra control consisting of medium containing the same amount of input virus as added to the cells was included in the experiment. The amount of p24 in this control was subsequently subtracted from the p24 values of the samples in order to obtain the exact amount of p24 produced by the cells. p24-core antigen quantification by ELISA After 2 or 7 days incubation, samples of the supernatants were collected, inactivated by addition of Empigen (Calbiochem, La Jolla, CA, USA) and by heat inactivation at 56°C for 30 min. p24-core antigen concentration was determined by an enzyme linked immunoabsorbent assay (ELISA) (AMPAK™, DAKO, Cambridgeshire, UK) as described previously ^18,19. The optical density values were converted into p24 concentration (ng/ml) with the use of a calibration curve made by serial dilutions of recombinant p24 protein (NIBSC, UK) that was submitted to the same treatment as the samples.

HIV-1Ba-L [3] = experiment: Entry assay: gag RNA in PBMC by real-time Taqman PCR; type: cell-based; settings: gag RNA in PBMC 2h after infection, 10 or 30 µM APHS
Procedure: PBMC infection with HIV-1Ba-L or HIV-1HXB2 for real-time Taqman PCR The ability of HIV-1Ba-L to enter the cells in the presence of APHS was tested using DS as positive control (entry assay). The amount of HIV-1HXB2 reverse transcription products in the presence of APHS was also tested, using AZT as positive control (reverse transcription assay). Before infection, PHA-stimulated PBMC from the PBMC batch were pre-incubated with different concentrations of APHS, DS or AZT for 24 h. […]
Real-time Taqman PCR is based on cleavage of a probe, hybridized to the target sequence by 5'-3' nuclease activity of Taq DNA polymerase during amplification, as described previously ^24. […] Once separated from the quencher, the reporter dye emits its characteristic fluorescence, which can then be measured. The amount of fluorescence measured is proportional to the amount of PCR product.
HIV-1 gag cDNA and HIV-1 (-) strong stop and gag DNA were amplified and quantified by real-time Taqman PCR as described elsewhere ^25. […] To quantify the amount of gag RNA in the samples, a cDNA standard curve was prepared from five-fold dilutions of extracted RNA from an HXB2 viral batch, of which the RNA amount was previously determined.

MHV-A59 = experiment: MHV infection of mouse L cells, CPE scoring; type: cell-based, Mouse hepatitis virus (MHV); settings: 24h, 143 to 0.009 µM
Procedure: After 24h, the cytopatic effect (CPE) of the virus and the cytotoxicity of the compounds were scored by microscopic observation.

HIV-1Ba-L [4] = experiment: Combination of HIV-1 inhibitors in HIV-1Ba-L infected PBMC (checker board, CalcuSyn); settings: Human immunodeficiency virus 1, PBMC
Procedure: After 7 days incubation, samples of the supernatants were collected, inactivated by addition of Empigen (Calbiochem, La Jolla, CA, USA) and by heat inactivation at 56°C for 30 min. p24-core antigen concentration was determined by an ELISA (AMPAK™, DAKO, Cambridgeshire, UK) as described previously ^39,40. The optical density values were converted into p24 concentration (ng/ml) with the use of a calibration curve made by serial dilutions of recombinant p24 protein (NIBSC, UK) that was submitted to the same treatment as the samples.
After 7 days of incubation, p24 antigen in culture supernatant was quantified by ELISA and cellular viability was assessed by a cytotoxicity assay. fa was calculated for each drug combination after p24 quantification. Using the CalcuSyn program, dose-effect curves were plotted for each drug combination, i.e., each dose was plotted against the corresponding fa value. […] CI values were calculated using the mutually nonexclusive assumption.

For `CCCCC#CCSc1ccccc1OC(C)=O` [APHS, o-(acetoxyphenyl)hept-2-ynyl sulfide], the “cytotoxicity for CrFK cells” value (CrFK cells) was “not cytotoxic”, the CC50 [1] was 374 µM and the “cytotoxicity for HFF and BHK cells” value (HFF and BHK cells) was “not cytotoxic”. For the same compound, the IC50 (HIV-1Ba-L [2]) was 12 µM, the “viral entry” value (HIV-1Ba-L [3]) was “no inhibition of viral entry” and the “effect on MHV replication (CPE)” value (MHV-A59) was “no effect”. It also gave an IC50 (HIV-1Ba-L [4]; 168 h, read-out: IC50 Alone APHS, APHS alone, PBMC, HIV-1Ba-L, 7 days, one value per experiment with the named partner drug) of 10 to 15 µM, an IC50 (HIV-1Ba-L [4]; read-out: IC50 of APHS alone (mean), mean over the combination experiments) of 13 µM and an IC50 (HIV-1Ba-L [4]; read-out: IC50 of APHS in combination with RTI or PI (mean), mean over the combination experiments) of 5 µM.
